{"source": "patent US20230047208A1", "about": "“RNA Splicing Modulation” (The General Hospital Corporation, priority 2020, published 2023)", "test_system": "wildtype (WT) human fibroblast cell lines", "assay": "Transcriptome-wide splicing by RNA sequencing (RNASeq), exon triplet PSI change;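 for Effect: six WT fibroblast lines treated seven days versus DMSO vehicle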;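 for T-PSI: T-PSI is average treated PSI after seven days of treatment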", "format": "cell-based", "set-up": "key to Effect: Exclusion; Inclusion; Unchanged", "description": "FIG. 2A provides a representation of an exon triplet. Exon U is upstream of Exon X, which is upstream of Exon D. R1, R2 and R3 represent RNA sequencing (RNASeq) reads spanning the regions between two adjacent exons. UI1, I1X, XI2 and I2D are four regions flanking the four splice sites of the exon-triplet. Each flanking region consists of 25 exonic base pairs and 75 intronic base pairs.\nFIG. 2B provides a volcano plot showing the ψ (PSI: Percent Spliced-In) changes in splicing after treatment with Compound (I). Each dot represents one of the 161,097 expressed exon triplets in human fibroblasts. The x axis represents the ψ changes after treatment and the y axis represents the False Discovery Rate (FDR) (log 10 transformed). […] The horizontal dashed line indicates an FDR of 0.1. The dots on the right side of the right vertical dashed line and above the horizontal dashed line represent the exon-triplets with an increase for Exon X inclusion (Δψ≥0.1 and FDR<0.1) while the dots on left side of the left vertical dashed line and above the horizontal dashed line represent an increase for Exon X exclusion (Δψ≤−0.1 and FDR<0.1). Black dots in-between the two vertical dashed lines represent exon-triplets unchanged from the treatment.\nIn some aspects, analysis is performed on data derived from the assay to measure the magnitude of splicing to determine the amount of exons spliced into an mRNA transcript that is produced in the presence of Compound (I) relative to the amount in the absence of Compound (I) or presence of a negative control. In a preferred aspect, the method utilized is calculation of change in Percent Spliced In (ΔPSI). […] The ΔPSI value is derived from the formula: […]\nThe values for “a” and “b” represent the number of reads supporting the probability for potential inclusion or exclusion of an exon in an RNA transcript. The “a” value is derived from the number of reads within an exon triplet covering, in 5′ to 3′ order: the last few bases (>1 nucleotide) of an upstream exon operably linked to the first few bases (>1 nucleotide) of a middle exon. The “b” value is derived from the number of reads within an exon triplet covering, in 5′ to 3′ order: the last few bases (>1 nucleotide) of the middle exon operably linked to the first few bases (>1 nucleotide) of a downstream exon. The number of reads will indicate whether the splice junction of a middle exon has been identified as potentially having a CNN Motif(s) by the CNN Model described herein, wherein the inclusion or exclusion of the middle exon may be modulated in the presence of Compound (I) to produce one or more mature RNA isoforms from the gene transcript. The value for “c” represents the number of reads supporting the exclusion of the middle exon.\nThe effect on splicing modulation and corresponding splice differences toward exon inclusion or exclusion was determined by counting the RNASeq reads covering two splice junctions of exon triplets (three consecutive exons: Exon U, Exon X, Exon D) and the corresponding intervening introns, then comparing the change in Percent Spliced In (ΔPSI or Δψ) of the middle exon (Exon X) after treatment (as shown in FIG. 2A)^52,53. 934 exon triplets were identified showing differential middle exon inclusion or exclusion in response to Compound (I) treatment. Of these, 254 were exon inclusion events (Δψ≥0.1 and FDR<0.1) and 680 were exon exclusion events (Δψ≤−0.1 and FDR<0.1) (as shown in FIG. 2B). […] The splicing results were evaluated by RT-PCR in independent replicate experiments, confirming all the calculated Δψ values. […]", "key": {"[1]": {"conditions": "PCNXL2 Exon 233160892-233161145"}, "[2]": {"conditions": "PCNXL2 Exon 233353645-233353677"}, "[3]": {"conditions": "PDE4DIP Exon 144859759-144859998"}}}
{"molecule": "Clc1nc(NCc2ccncc2)c2cc[nH]c2n1", "note": "[Compound (I), 2-chloro-N-(pyridin-4-ylmethyl)-7H-pyrrolo[2,3-d]pyrimidin-4-amine]", "values": [{"measurement": "ΔPSI", "setting": "PARP6 Exon 72543186-72543295", "result": 0.148}, {"measurement": "Effect", "setting": "PARP6 Exon 72543186-72543298", "result": "Inc"}, {"measurement": "T-PSI", "setting": "PARP6 Exon 72543186-72543298", "result": 0.870}, {"measurement": "ΔPSI", "setting": "PARP6 Exon 72543186-72543298", "result": 0.164}, {"measurement": "Effect", "setting": "PARP11 Exon 3938076-3938196", "result": "Exc"}, {"measurement": "T-PSI", "setting": "PARP11 Exon 3938076-3938196", "result": 0.250}, {"measurement": "ΔPSI", "setting": "PARP11 Exon 3938076-3938196", "result": "−0.245"}, {"measurement": "Effect", "setting": "PATL1 Exon 59423429-59423518", "result": "Exc"}, {"measurement": "T-PSI", "setting": "PATL1 Exon 59423429-59423518", "result": 0.710}, {"measurement": "ΔPSI", "setting": "PATL1 Exon 59423429-59423518", "result": "−0.168"}, {"measurement": "Effect", "setting": "PCBP2 Exon 53861589-53861627", "result": "Exc"}, {"measurement": "T-PSI", "setting": "PCBP2 Exon 53861589-53861627", "result": 0.431}, {"measurement": "ΔPSI", "setting": "PCBP2 Exon 53861589-53861627", "result": "−0.218"}, {"measurement": "Effect", "setting": "PCID2 Exon 113845186-113845289", "result": "Exc"}, {"measurement": "T-PSI", "setting": "PCID2 Exon 113845186-113845289", "result": 0.757}, {"measurement": "ΔPSI", "setting": "PCID2 Exon 113845186-113845289", "result": "−0.217"}, {"measurement": "Effect", "setting": "PCM1 Exon 17838100-17838264", "result": "Exc"}, {"measurement": "T-PSI", "setting": "PCM1 Exon 17838100-17838264", "result": 0.444}, {"measurement": "ΔPSI", "setting": "PCM1 Exon 17838100-17838264", "result": "−0.135"}, {"measurement": "Effect", "setting": "[1]", "result": "Unc"}, {"measurement": "T-PSI", "setting": "[1]", "result": 0.891}, {"measurement": "ΔPSI", "setting": "[1]", "result": 0.009}, {"measurement": "Effect", "setting": "[2]", "result": "Exc"}, {"measurement": "T-PSI", "setting": "[2]", "result": 0.899}, {"measurement": "ΔPSI", "setting": "[2]", "result": "−0.101"}, {"measurement": "Effect", "setting": "PCNXL4 Exon 60574304-60575045", "result": "Exc"}, {"measurement": "T-PSI", "setting": "PCNXL4 Exon 60574304-60575045", "result": 0.498}, {"measurement": "ΔPSI", "setting": "PCNXL4 Exon 60574304-60575045", "result": "−0.151"}, {"measurement": "Effect", "setting": "PCYT2 Exon 79863258-79863323", "result": "Exc"}, {"measurement": "T-PSI", "setting": "PCYT2 Exon 79863258-79863323", "result": 0.804}, {"measurement": "ΔPSI", "setting": "PCYT2 Exon 79863258-79863323", "result": "−0.150"}, {"measurement": "Effect", "setting": "[3]", "result": "Inc"}, {"measurement": "T-PSI", "setting": "[3]", "result": 0.821}, {"measurement": "ΔPSI", "setting": "[3]", "result": 0.140}, {"measurement": "Effect", "setting": "PDGFC Exon 157782581-157782641", "result": "Unc"}, {"measurement": "T-PSI", "setting": "PDGFC Exon 157782581-157782641", "result": 0.141}, {"measurement": "ΔPSI", "setting": "PDGFC Exon 157782581-157782641", "result": 0.006}, {"measurement": "Effect", "setting": "PDLIM2 Exon 22449064-22449181", "result": "Exc"}, {"measurement": "T-PSI", "setting": "PDLIM2 Exon 22449064-22449181", "result": 0.542}, {"measurement": "ΔPSI", "setting": "PDLIM2 Exon 22449064-22449181", "result": "−0.322"}, {"measurement": "Effect", "setting": "PDP1 Exon 94930139-94930173", "result": "Unc"}, {"measurement": "T-PSI", "setting": "PDP1 Exon 94930139-94930173", "result": 0.184}, {"measurement": "ΔPSI", "setting": "PDP1 Exon 94930139-94930173", "result": "−0.002"}, {"measurement": "Effect", "setting": "PDPR Exon 70148773-70148833", "result": "Unc"}, {"measurement": "T-PSI", "setting": "PDPR Exon 70148773-70148833", "result": 0.268}, {"measurement": "ΔPSI", "setting": "PDPR Exon 70148773-70148833", "result": "−0.005"}, {"measurement": "Effect", "setting": "PDXDC2P Exon 70010714-70011906", "result": "Unc"}, {"measurement": "T-PSI", "setting": "PDXDC2P Exon 70010714-70011906", "result": 0.246}, {"measurement": "ΔPSI", "setting": "PDXDC2P Exon 70010714-70011906", "result": "−0.004"}, {"measurement": "Effect", "setting": "PDZD11 Exon 69509372-69509443", "result": "Inc"}, {"measurement": "T-PSI", "setting": "PDZD11 Exon 69509372-69509443", "result": 0.417}, {"measurement": "ΔPSI", "setting": "PDZD11 Exon 69509372-69509443", "result": 0.257}, {"measurement": "Effect", "setting": "PEAK1 Exon 77576225-77576372", "result": "Exc"}, {"measurement": "T-PSI", "setting": "PEAK1 Exon 77576225-77576372", "result": 0.201}, {"measurement": "ΔPSI", "setting": "PEAK1 Exon 77576225-77576372", "result": "−0.170"}, {"measurement": "Effect", "setting": "PEAK1 Exon 77657505-77657567", "result": "Unc"}, {"measurement": "T-PSI", "setting": "PEAK1 Exon 77657505-77657567", "result": 0.806}, {"measurement": "ΔPSI", "setting": "PEAK1 Exon 77657505-77657567", "result": "−0.001"}, {"measurement": "Effect", "setting": "PEX1 Exon 92138643-92138725", "result": "Exc"}, {"measurement": "T-PSI", "setting": "PEX1 Exon 92138643-92138725", "result": 0.444}, {"measurement": "ΔPSI", "setting": "PEX1 Exon 92138643-92138725", "result": "−0.341"}, {"measurement": "Effect", "setting": "PEX5 Exon 7354837-7354947", "result": "Exc"}, {"measurement": "T-PSI", "setting": "PEX5 Exon 7354837-7354947", "result": 0.279}, {"measurement": "ΔPSI", "setting": "PEX5 Exon 7354837-7354947", "result": "−0.163"}, {"measurement": "Effect", "setting": "PEX11A Exon 90229662-90229777", "result": "Exc"}, {"measurement": "T-PSI", "setting": "PEX11A Exon 90229662-90229777", "result": 0.316}, {"measurement": "ΔPSI", "setting": "PEX11A Exon 90229662-90229777", "result": "−0.403"}, {"measurement": "T-PSI", "setting": "PFDN1 Exon 139680001-139680167", "result": 0.458}, {"measurement": "ΔPSI", "setting": "PFDN1 Exon 139680001-139680167", "result": "−0.326"}, {"measurement": "T-PSI", "setting": "PFDN5 Exon 53690214-53690335", "result": 0.175}, {"measurement": "ΔPSI", "setting": "PFDN5 Exon 53690214-53690335", "result": 0.008}, {"measurement": "T-PSI", "setting": "PFDN5 Exon 53690238-53690335", "result": 0.180}, {"measurement": "ΔPSI", "setting": "PFDN5 Exon 53690238-53690335", "result": 0.007}, {"measurement": "exon triplets showing differential middle exon inclusion or exclusion in response to treatment", "setting": "RNASeq, human fibroblasts, out of 161,097 expressed triplets", "result": 934}, {"measurement": "unchanged-response set, exon triplets", "setting": "Δψ≤0.01", "result": 382}, {"measurement": "exon exclusion events", "setting": "Δψ≤−0.1 and FDR<0.1", "result": 680}, {"measurement": "exon inclusion events", "setting": "Δψ≥0.1 and FDR<0.1", "result": 254}]}
